Measurements taken from US7736621B2, “Methods for gauging the effect of a depression treatment by determining the levels of beta-arrestin 1 and G-protein coupled receptor kinase 2” (Hypatia Ltd., priority 2004, dated 2010).

Key:
Gs and Gi proteins = settings: cited from earlier work
beta-arrestin1 = assay: Beta-arrestin 1 levels in rat brain areas after chronic antidepressant treatment (immunoblot); type: in vivo; settings: three weeks of treatment
Description: On the 22nd day, rats were decapitated, blood collected and brain regions immediately dissected. Tissue homogenization was carried out in a glass-teflon homogenizer with ice-cold buffer containing 20 mM Tris.Cl pH 7.4, 2 mM EDTA, 1 mM DTT and antiprotease cocktail (Sigma). After initial centrifugation at 800 g for 5 min, the supernatant was collected and further centrifuged at 48,000 g for 30 min using a Beckman Ti80 rotor. The resulting supernatant and pellet were separated: the supernatant fraction was collected and centrifuged at 120,000 g for 45 min and the supernatant obtained was used for all measurements; the pellet was resuspended in the homogenization buffer and the pellet fraction obtained was used for all measurements.
On the day of assay, cytosolic and/or membrane fraction were thawed. 10 μg total protein aliquots were taken for protein separation by SDS-(10%) polyacrylamide gel electrophoresis. The resulting proteins were transferred to nitrocellulose paper by use of electroblotting apparatus. Blots were blocked with 5% BSA for 1 hr in TBS containing 0.1% Tween-20 (TTBS) and incubated overnight with a monoclonal antibody to beta-arrestin1 (Transduction Labs, diluted 1:250). The immune bands were detected by subsequent incubation with anti-mouse IgG labeled with horseradishperoxidase using the Enhanced Chemiluminescence Western Blot Detection System (Amersham) followed by exposure to Kodak X-Omat film. […] Peak heights of immunoreactive bands presented as arbitrary absorbance units, were determined with a computer-assisted imaging system for semi-quantitative measurements. 10 μg rat cortical membranes run in each blot as a standard reference.
Beta-arrestin1 levels were measured in three rat brain areas: cortex, hippocampus and striatum.

Row | Structure (SMILES) | Dopamine-induced Gs hyperfunction of untreated patients with schizophrenia (Gs and Gi proteins; leukocytes of patients with schizophrenia) | Gs level and function (Gs and Gi proteins; patients with schizophrenia, reduction correlated with intensity of Parkinsonian side effects) | Cytosolic beta-arrestin-1 in rat cortex (beta-arrestin1; rat cortex, cytosolic fraction, 10 mg/kg twice daily intragastrically, compared with control group) | Membrane beta-arrestin 1 in rat cortex (beta-arrestin1; rat cortex, membrane fraction, 10 mg/kg twice daily intragastrically, compared with control group) | Cytosolic beta-arrestin-1 in rat hippocampus (beta-arrestin1; rat hippocampus, cytosolic fraction, 10 mg/kg twice daily intragastrically, compared with control group) | Beta-arrestin 1 levels in striatum (beta-arrestin1; rat striatum)
1 | O=C(CCCN1CCC(O)(c2ccc(Cl)cc2)CC1)c1ccc(F)cc1 [haloperidol] | corrected | significant decrease in Gs level and function to below normal levels | – | – | – | –
2 | CN(C)CCCN1c2ccccc2CCc2ccccc21 [imipramine] | – | – | 165.6% | 156.8% | 179.2% | no alterations
